What all share (assay type): cell-based
One test addresses T1, PPARγ (Homo sapiens, UniProt P37231).
T1 construct: The reporter is ERE-βGlob-Luc-SV-Neo
T1 sequence (P37231 238-505 limits assumed): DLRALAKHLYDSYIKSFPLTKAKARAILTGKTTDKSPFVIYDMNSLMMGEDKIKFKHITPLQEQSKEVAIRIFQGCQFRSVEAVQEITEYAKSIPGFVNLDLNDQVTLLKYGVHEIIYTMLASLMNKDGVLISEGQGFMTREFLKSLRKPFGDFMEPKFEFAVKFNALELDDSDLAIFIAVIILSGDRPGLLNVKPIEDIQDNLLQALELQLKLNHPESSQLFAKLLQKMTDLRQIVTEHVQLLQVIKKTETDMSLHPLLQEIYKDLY
Briefly: Crossed-curve PPAR transactivation assay (PPARγ). Particulars: HeLN cells stably transfected with ERE-βGlob-Luc-SV-Neo and Gal-hPPARγ; crossed curves against reference agonist, Schild regression; n.a. means not active; read-out: PPAR gamma Kd app. How it is done:
(§1) Activation of the receptors by an agonist (activator) in HeLN cells leads to the expression of a reporter gene, luciferase, which, in the presence of a substrate, generates light. The modulation of the receptors is measured by quantifying the luminescence produced after incubation of the cells in the presence of a reference agonist. The ligands will displace the agonist from its site. The measurement of the activity is performed by quantifying the light produced. This measurement makes it possible to determine the modulatory activity of the compounds according to the invention by determining the constant that is the affinity of the molecule for the receptor. Since this value can fluctuate depending on the basal activity and the expression of the receptor, it is referred to as Kd apparent (KdApp in nM).
(§2) To determine this constant, “crossed curves” for the test product, against a reference agonist, are prepared using a 96-well plate: 10 concentrations of the test product plus a concentration 0 are arranged in a line, and 7 concentrations of the agonist plus a concentration 0 are arranged in a column. This is 88 measurement points for 1 product and 1 receptor. The remaining 8 wells are used for repeatability controls.
(§3) Measurements are also taken for total agonist controls with the same products.
(§4) The HeLN cell lines used are stable transfectants containing the plasmids ERE-βGlob-Luc-SV-Neo (reporter gene) and PPAR (α, δ, γ) Gal-hPPAR. These cells are seeded in 96-well plates at a rate of 10 000 cells per well in 100 μl of DMEM medium without phenol red and supplemented with 10% of defatted calf serum. The plates are then incubated for 16 hours at 37° C. and 7% CO2.
(§5) The various dilutions of the test products and of the reference ligand are added at a rate of 5 μl per well. The plates are then incubated for 18 hours at 37° C. and 7% CO2. The culture medium is removed by turning over and 100 μl of a 1:1 PBS/luciferin mixture are added to each well. After 5 minutes, the plates are read using the luminescence reader.

Another test concerns the target T2, PPARα (Homo sapiens, UniProt Q07869).
T2 construct: The reporter is ERE-βGlob-Luc-SV-Neo
T2 sequence (Q07869 239-468 limits assumed): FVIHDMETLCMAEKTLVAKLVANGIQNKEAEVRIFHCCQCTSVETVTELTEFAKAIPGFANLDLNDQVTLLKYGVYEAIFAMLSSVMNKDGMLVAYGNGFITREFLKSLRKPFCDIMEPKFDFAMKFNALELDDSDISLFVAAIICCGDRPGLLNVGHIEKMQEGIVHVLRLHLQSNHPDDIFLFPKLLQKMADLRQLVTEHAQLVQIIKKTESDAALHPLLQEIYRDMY
The experiment in a line: Crossed-curve PPAR transactivation assay (PPARα). To be noted: HeLN cells stably transfected with ERE-βGlob-Luc-SV-Neo and Gal-hPPARα; crossed curves against reference agonist, Schild regression; n.a. means not active; read-out: PPAR alpha Kd app. How it is done:
as §1, §2, §3, §4, §5

For the next test, the target named is T3, PPARδ (Homo sapiens, UniProt Q03181).
T3 construct: The reporter is ERE-βGlob-Luc-SV-Neo
T3 sequence (Q03181 211-441 limits assumed): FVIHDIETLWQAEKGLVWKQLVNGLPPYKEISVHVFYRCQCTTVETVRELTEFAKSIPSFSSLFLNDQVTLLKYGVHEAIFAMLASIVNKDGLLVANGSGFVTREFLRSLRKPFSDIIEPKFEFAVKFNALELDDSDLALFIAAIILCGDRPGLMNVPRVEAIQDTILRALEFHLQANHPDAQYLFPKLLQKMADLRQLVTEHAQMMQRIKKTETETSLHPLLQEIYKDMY
The experiment in a line: Crossed-curve PPAR transactivation assay (PPARδ). Particulars: HeLN cells stably transfected with ERE-βGlob-Luc-SV-Neo and Gal-hPPARδ; crossed curves against reference agonist, Schild regression; n.a. means not active; read-out: PPAR delta Kd app. As to the method:
as §1
To determine this constant, “crossed curves” for the test product, against a reference agonist, are prepared using a 96-well plate: 10 concentrations of the test product plus a concentration 0 are arranged in a line, and 7 concentrations of the agonist plus a concentration 0 are arranged in a column. This is 88 measurement points for 1 product and 1 receptor. […]
The various dilutions of the test products and of the reference ligand are added at a rate of 5 μl per well. […] After 5 minutes, the plates are read using the luminescence reader.

For the molecule `CCCCCCCNC(=O)N(C)c1cccc(-c2ccc(C[C@H](Nc3ccccc3C(=O)c3ccccc3)C(=O)OCCCC)cc2)c1` [Example 39, butyl (S)-2-(2-benzoylphenylamino)-3-[3′-(3-heptyl-1-methylureido)biphenyl-4-yl]propionate], on PPARγ, the Kd was 30 nM.
On the same count and under the same terms, with `CC(=CC(=O)c1ccccc1)N[C@@H](Cc1ccc(-c2cccc(CN(C)C(=O)c3ccccc3)c2)cc1)C(=O)O` [Example 31, (S)-3-{3′-[(benzoylmethylamino)methyl]biphenyl-4-yl}-2-(1-methyl-3-oxo-3-phenylpropenylamino)propionic acid] the figure was 15 nM; with `CCCCCCCNC(=O)N(C)c1cccc(-c2ccc(C[C@H](Nc3ccccc3C(=O)c3ccccc3)C(=O)N(C)Cc3ccccc3)cc2)c1` [Example 20, (S)-2-(2-benzoylphenylamino)-N-benzyl-3-[3′-(3-heptyl-1-methylureido)biphenyl-4-yl]-N-methylpropionamide], 30 nM; with `CCCCCCCNC(=O)N(C)c1cccc(-c2ccc(C[C@H](Nc3ccccc3C(=O)c3ccccc3)C(=O)N(Cc3ccccc3)Cc3ccccc3)cc2)c1` [Example 13, (S)-2-(2-benzoylphenylamino)-N,N-dibenzyl-3-[3′-(3-heptyl-1-methylureido)biphenyl-4-yl]propionamide], 8 nM.
Still for that read-out and setting: with `CCCCCCCNC(=O)N(C)c1cccc(-c2ccc(C[C@H](Nc3ccccc3C(=O)c3ccccc3)C(=O)NCCN(C)C)cc2)c1` [Example 26, (S)-2-(2-benzoylphenylamino)-N-(2-dimethylaminoethyl)-3-[3′-(3-heptyl-1-methylureido)biphenyl-4-yl]propionamide] the figure was 60 nM.
Turning to `CCCCCCCNC(=O)N(C)c1cccc(-c2ccc(C[C@H](Nc3ccccc3C(=O)c3ccccc3)C(=O)N3CCC(C)CC3)cc2)c1` [Example 9, (S)-1-{4′-[2-(2-benzoylphenylamino)-3-(4-methylpiperid-1-yl)-3-oxopropyl]biphenyl-3-yl}-3-heptyl-1-methylurea], the Kd stood at 30 nM on PPARγ and 2000 nM at PPARα.
For `CCCCCCCNC(=O)N(C)c1cccc(-c2ccc(C[C@H](Nc3ccccc3C(=O)c3ccccc3)c3nnc(CCC)o3)cc2)c1` [Example 3, (S)-1-{4′-[2-(2-benzoylphenylamino)-2-(5-propyl[1,3,4]oxadiazol-2-yl)ethyl]biphenyl-3-yl}-3-heptyl-1-methylurea], on PPARγ, the Kd was 30 nM.
As to `CCCCCCCNC(=O)N(C)c1cccc(-c2ccc(C[C@H](Nc3ccccc3C(=O)c3ccccc3)C(=O)NCc3ccccn3)cc2)c1` [Example 18, (S)-2-(2-benzoylphenylamino)-3-[3′-(3-heptyl-1-methylureido)biphenyl-4-yl]-N-pyridin-2-ylmethylpropionamide], the Kd at PPARγ was determined as 60 nM.
For the molecule `CCCCCCCNC(=O)N(C)c1cccc(-c2ccc(C[C@H](Nc3ccccc3C(=O)c3ccccc3)C(=O)N(C)CCc3ccccc3)cc2)c1` [Example 27, (S)-2-(2-benzoylphenylamino)-3-[3′-(3-heptyl-1-methylureido)biphenyl-4-yl]-N-methyl-N-phenethylpropionamide], the figures for the Kd on PPARγ and at PPARα were 15 nM and 4000 nM, respectively.
As for `CCCCCCCNC(=O)N(C)c1cccc(-c2ccc(C[C@H](Nc3ccccc3C(=O)c3ccccc3)C(=O)NCCCCC)cc2)c1` [Example 8, (S)-2-(2-benzoylphenylamino)-3-[3′-(3-heptyl-1-methylureido)biphenyl-4-yl]-N-pentylpropionamide], the Kd came out at 30 nM at PPARγ, 500 nM on PPARδ and 2000 nM at PPARα.
Regarding `CCCCCCCNC(=O)N(C)c1cccc(-c2ccc(C[C@H](Nc3ccccc3C(=O)c3ccccc3)C(=O)NCCNC(C)=O)cc2)c1` [Example 10, (S)—N-(2-acetylaminoethyl)-2-(2-benzoylphenylamino)-3-[3′-(3-heptyl-1-methylureido)biphenyl-4-yl]propionamide], the Kd on PPARγ turned out to be 60 nM; at PPARα, 2000 nM.
Take `CN(C(=O)Nc1ccc2ccccc2c1)c1cccc(-c2ccc(C[C@H](Nc3ccccc3C(=O)c3ccccc3)C(=O)O)cc2)c1` [Example 6, (S)-2-(2-benzoylphenylamino)-3-[3′-(1-methyl-3-naphthalen-2-ylureido)biphenyl-4-yl]propionic acid]: the Kd on PPARγ was found to be 4 nM.
Take `CN(Cc1cccc(-c2ccc(C[C@H](Nc3ccccc3C(=O)c3ccccc3)C(=O)O)cc2)c1)C(=O)c1ccccc1` [Example 29, (S)-3-{3′-[(benzoylmethylamino)methyl]biphenyl-4-yl}-2-(2-benzoylphenylamino)propionic acid]: the Kd amounted to 500 nM on PPARγ and 2000 nM on PPARα.
Take `CCCCCCCNC(=O)N(C)c1cccc(-c2ccc(C[C@H](Nc3ccccc3C(=O)c3ccccc3)C(=O)N3CCN(C)CC3)cc2)c1` [Example 16, (S)-1-{4′-[2-(2-benzoylphenylamino)-3-(4-methylpiperazin-1-yl)-3-oxopropyl]biphenyl-3-yl}-3-heptyl-1-methylurea]: the Kd on PPARγ was 30 nM.
